From patent publication US8604016B2, “Heterocyclic inhibitors of glutaminase” (Calithera Biosciences Inc., priority 2011, dated 2013)
pIC50: −log10 of the molar value.

target: recombinant form of Glutaminase 1 (GAC) (Homo sapiens, UniProt O94925); assay: Recombinant Enzyme Assay (GAC coupled to GDH, NADH absorbance, no preincubation); assay type: biochemical; conditions: no preincubation; read-out: GAC Delta N2 IC50 no preinc
Summary of the method: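 GAC (4 nM) in Tris-HCl pH 8.0 with 150 mM K2HPO4, EDTA, BSA, DTT, plus 4 units/ml GDH and 4 mM ADP, without preincubation. Absorbance at 340 nm was read kinetically for 15 min at 20° C. Slopes (mAU/min) were compared with DMSO-only and control-compound wells on the same plate.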

First: NCC(C(=O)Nc1nnc(CCSCCc2nnc(NC(=O)C(CN)c3ccccc3)s2)s1)c1ccccc1 (stereo not drawn) [Compound 230]
Second: NCC(C(=O)Nc1nnc(CCCCc2nnc(NC(=O)C(CN)c3ccccc3)s2)s1)c1ccccc1 (stereo not drawn) [Compound 231]
The pIC50 of the first is 0.21 log units lower: 4.92 for the first, 5.13 for the second.

Going from `CC(=O)NCC(C(=O)Nc1nnc(CCSCCc2nnc(NC(=O)C(CNC(C)=O)c3ccccc3)s2)s1)c1ccccc1` (stereo not drawn) [Compound 232] to `CC(=O)NCC(C(=O)Nc1nnc(CCCCc2nnc(NC(=O)C(CNC(C)=O)c3ccccc3)s2)s1)c1ccccc1` (stereo not drawn) [Compound 266], the pIC50 rises from 5.01 to 5.66 (0.65 log units). The second is the more potent here.

First: O=C(Cc1cc2ccccc2s1)Nc1nnc(CCCCc2nnc(NC(=O)Cc3cc4ccccc4s3)s2)s1 [Compound 233]
Second: O=C(Cc1ccccc1Br)Nc1nnc(CCCCc2nnc(NC(=O)Cc3ccccc3Br)s2)s1 [Compound 282]
The pIC50 of the first is 2.27 log units lower: 4.82 for the first, 7.09 for the second.

Compared with `COC(=O)C(C(=O)Nc1nnc(CCSCCc2nnc(NC(=O)C(C(=O)OC)c3ccccc3)s2)s1)c1ccccc1` (stereo not drawn) [Compound 234], `O=C(Nc1nnc(CCCCc2nnc(NC(=O)C(OCCO)c3ccccc3)s2)s1)C(OCCO)c1ccccc1` (stereo not drawn) [Compound 252] is 0.22 log units higher in pIC50: 5.70 for the first, 5.92 for the second.

Going from `O=C(Cc1cccs1)Nc1nnc(CCSCc2nnc(NC(=O)Cc3cccs3)s2)s1` [Compound 237] to `COc1ccccc1CC(=O)Nc1nnc(CCSCc2nnc(NC(=O)Cc3ccccc3OC)s2)s1` [Compound 249], the pIC50 rises from 6.70 to 6.92 (0.22 log units). The second is the more potent here.

First: O=C(CN1C(=O)OC[C@H]1c1ccccc1)Nc1nnc(CCSCCc2nnc(NC(=O)CN3C(=O)OC[C@H]3c3ccccc3)s2)s1 [Compound 243]
Second: O=C(Cc1ccccc1Cl)Nc1nnc(CCSCCc2nnc(NC(=O)Cc3ccccc3Cl)s2)s1 [Compound 255]
The pIC50 of the first is 0.85 log units lower: 5.57 for the first, 6.42 for the second.

Going from `CCOC(=O)Nc1nnc(CCCCc2nnc(NC(=O)Cc3ccccc3)s2)s1` [Compound 244] to `C[C@H](O)C(=O)Nc1nnc(CCCCc2nnc(NC(=O)Cc3ccccc3)s2)s1` [Compound 321], the pIC50 falls from 6.08 to 5.60 (0.48 log units).

`COc1ccccc1C(CO)C(=O)Nc1nnc(CCSCCc2nnc(NC(=O)C(CO)c3ccccc3OC)s2)s1` (stereo not drawn) [Compound 245] and `COc1ccccc1CC(=O)Nc1nnc(CCSCCc2nnc(NC(=O)C(CO)c3ccccc3OC)s2)s1` (stereo not drawn) [Compound 246] are within 0.2 log units of each other in pIC50: 6.28 for the first, 6.40 for the second.

`Cc1cccc(CC(=O)Nc2nnc(CCSCCc3nnc(NC(=O)Cc4cccc(C)c4)s3)s2)c1` [Compound 247] and `O=C(Cc1cccc(F)c1)Nc1nnc(CCCCc2nnc(NC(=O)Cc3cccc(F)c3)s2)s1` [Compound 273] are within 0.2 log units of each other in pIC50: 6.72 for the first, 6.85 for the second.

First: COCOCCOC(C(=O)Nc1nnc(CCCCc2nnc(NC(=O)C(OCCOCOC)c3ccccc3)s2)s1)c1ccccc1 (stereo not drawn) [Compound 251]
Second: O=C(Cc1ccccc1)Nc1nnc(CCCCc2nnc(NC(=O)C(CO)c3ccccc3)s2)s1 (stereo not drawn) [Compound 316]
The pIC50 of the first is 1.17 log units lower: 5.55 for the first, 6.72 for the second.

`O=C(CO)Nc1nnc(CCSCCc2nnc(NC(=O)CO)s2)s1` [Compound 253] and `CC(=O)OCC(=O)Nc1nnc(CCSCCc2nnc(NC(=O)CO)s2)s1` [Compound 254] cannot be ordered by pIC50: 4.68 for the first, under 4.70 for the second.

First: COc1cccc(C(CO)C(=O)Nc2nnc(CCCCc3nnc(NC(=O)C(CO)c4cccc(OC)c4)s3)s2)c1 (stereo not drawn) [Compound 257]
Second: COc1cccc(C(CO)C(=O)Nc2nnc(CCSCc3nnc(NC(=O)C(CO)c4cccc(OC)c4)s3)s2)c1 (stereo not drawn) [Compound 258]
The pIC50 of the first is 0.20 log units higher: 6.92 for the first, 6.72 for the second. The first is the more potent here.

`COc1cccc(CC(=O)Nc2nnc(CCSCCc3nnc(NC(=O)Cc4cccc(OC)c4OC)s3)s2)c1OC` [Compound 259] and `COc1cccc(CC(=O)Nc2nnc(CCCCc3nnc(NC(=O)Cc4cccc(OC)c4OC)s3)s2)c1OC` [Compound 260] are within 0.2 log units of each other in pIC50: 6.64 for the first, 6.82 for the second.

`CC(C(=O)Nc1nnc(CCSCCc2nnc(NC(=O)C(C)c3ccccc3Cl)s2)s1)c1ccccc1Cl` (stereo not drawn) [Compound 261] and `CC(C(=O)Nc1nnc(CCCCc2nnc(NC(=O)C(C)c3ccccc3Cl)s2)s1)c1ccccc1Cl` (stereo not drawn) [Compound 274] are within 0.2 log units of each other in pIC50: 6.15 for the first, 6.12 for the second.

`Cc1ccccc1C(C)C(=O)Nc1nnc(CCSCCc2nnc(NC(=O)C(C)c3ccccc3C)s2)s1` (stereo not drawn) [Compound 262] and `COc1ccccc1C(C)C(=O)Nc1nnc(CCSCCc2nnc(NC(=O)C(C)c3ccccc3OC)s2)s1` (stereo not drawn) [Compound 263] are within 0.2 log units of each other in pIC50: 6.44 for the first, 6.49 for the second.

First: COc1ccccc1CC(=O)Nc1nnc(CCCCc2nnc(NC(=O)Cc3ccccc3OC)s2)s1 [Compound 264]
Second: CCOc1ccccc1CC(=O)Nc1nnc(CCCCc2nnc(NC(=O)Cc3ccccc3OCC)s2)s1 [Compound 300]
The pIC50 of the first is 0.34 log units higher: 7.14 for the first, 6.80 for the second. The first is the more potent here.

Compared with `COc1ccc(OC)c(CC(=O)Nc2nnc(CCCc3nnc(NC(=O)Cc4cc(OC)ccc4OC)s3)s2)c1` [Compound 265], `COc1ccc(OC)c(CC(=O)Nc2nnc(CCCCc3nnc(NC(=O)Cc4ccccc4)s3)s2)c1` [Compound 271] is 0.43 log units higher in pIC50: 6.57 for the first, 7.00 for the second. The second is the more potent here.

Compared with `O=C(Cc1cccc(OCCN2CCOCC2)c1)Nc1nnc(CCSCc2nnc(NC(=O)Cc3cccc(OCCN4CCOCC4)c3)s2)s1` [Compound 267], `O=C(Cc1cccc(Br)c1)Nc1nnc(CCCCc2nnc(NC(=O)Cc3cccc(Br)c3)s2)s1` [Compound 284] is lower in pIC50: 6.21 for the first, under 4.70 for the second. The first is the more potent here.

Compared with `O=C(Cc1ccc2ncccc2c1)Nc1nnc(CCSCCc2nnc(NC(=O)Cc3ccc4ncccc4c3)s2)s1` [Compound 268], `O=C(Cc1ccc2ncccc2c1)Nc1nnc(CCCCc2nnc(NC(=O)Cc3ccc4ncccc4c3)s2)s1` [Compound 269] is 0.37 log units higher in pIC50: 6.22 for the first, 6.59 for the second.

First: CC(C)[C@H](NC(=O)OC(C)(C)C)C(=O)OCC(C(=O)Nc1nnc(CCCCc2nnc(NC(=O)C(COC(=O)[C@@H](NC(=O)OC(C)(C)C)C(C)C)c3ccccc3)s2)s1)c1ccccc1 (stereo partly drawn) [Compound 272]
Second: CC(C)[C@H](N)C(=O)OCC(C(=O)Nc1nnc(CCCCc2nnc(NC(=O)C(COC(=O)[C@@H](N)C(C)C)c3ccccc3)s2)s1)c1ccccc1 (stereo partly drawn) [Compound 291]
The pIC50 of the first is lower: under 4.70 for the first, 5.82 for the second. The second is the more potent here.

First: CC1(C)OCC(C(=O)Nc2nnc(CCCCc3nnc(NC(=O)C4(c5ccccc5)COC(C)(C)O4)s3)s2)(c2ccccc2)O1 (stereo not drawn) [Compound 277]
Second: CC1(C)OCC(C(=O)Nc2nnc(CCCCc3nnc(NC(=O)Cc4ccccc4)s3)s2)(c2ccccc2)O1 (stereo not drawn) [Compound 279]
The pIC50 of the first is lower: under 4.70 for the first, 6.17 for the second. The second is the more potent here.

`O=C(Nc1nnc(CCCCc2nnc(NC(=O)C(O)(CO)c3ccccc3)s2)s1)C(O)(CO)c1ccccc1` (stereo not drawn) [Compound 278] and `O=C(Cc1ccccc1)Nc1nnc(CCCCc2nnc(NC(=O)C(O)(CO)c3ccccc3)s2)s1` (stereo not drawn) [Compound 280] are within 0.2 log units of each other in pIC50: 6.42 for the first, 6.54 for the second.

Going from `C=C(C(=O)Nc1nnc(CCCCc2nnc(NC(=O)C(COC(=O)CCN3CCOCC3)c3ccccc3)s2)s1)c1ccccc1` (stereo not drawn) [Compound 281] to `O=C(OCC(C(=O)Nc1nnc(CCCCc2nnc(NC(=O)C(COC(=O)C3CCNCC3)c3ccccc3)s2)s1)c1ccccc1)C1CCNCC1` (stereo not drawn) [Compound 302], the pIC50 falls from 6.13 to 5.15 (0.98 log units). The first is the more potent here.

Compared with `O=C(Cc1ccccc1Br)Nc1nnc(CCSCCc2nnc(NC(=O)Cc3ccccc3Br)s2)s1` [Compound 283], `O=C(Cc1ccccc1F)Nc1nnc(CCSCCc2nnc(NC(=O)Cc3ccccc3F)s2)s1` [Compound 294] is 0.52 log units higher in pIC50: 6.18 for the first, 6.70 for the second.

Compared with `O=C(Cc1cccc(-n2cccn2)c1)Nc1nnc(CCCCc2nnc(NC(=O)Cc3cccc(-n4cccn4)c3)s2)s1` [Compound 285], `Cc1nccn1Cc1cccc(CC(=O)Nc2nnc(CCCCc3nnc(NC(=O)Cc4cccc(Cn5ccnc5C)c4)s3)s2)c1` [Compound 296] is 0.28 log units higher in pIC50: 6.72 for the first, 7.00 for the second.

`O=C(Nc1nnc(CCCCc2nnc(NC(=O)C(O)c3ccccc3Br)s2)s1)C(O)c1ccccc1Br` (stereo not drawn) [Compound 287] and `COc1ccc(C(O)C(=O)Nc2nnc(CCCCc3nnc(NC(=O)C(O)c4ccc(OC)cc4)s3)s2)cc1` (stereo not drawn) [Compound 320] are within 0.2 log units of each other in pIC50: 6.24 for the first, 6.40 for the second.

Compared with `CC(CCC(C)c1nnc(NC(=O)Cc2ccccc2)s1)c1nnc(NC(=O)Cc2ccccc2)s1` (stereo not drawn) [Compound 289], `O=C(Cc1ccccc1)Nc1nnc(CCCCc2nnc(NC(=O)Cc3cccnc3)s2)s1` [Compound 309] is 2.47 log units higher in pIC50: 4.49 for the first, 6.96 for the second.

`O=C(Cc1ccccc1)Nc1nnc(CCCCc2nnc(NC(=O)[C@H]3CCCC[C@@H]3C(=O)c3ccccc3)s2)s1` [Compound 290] and `O=C(Cc1ccccc1)Nc1nnc(CCCCc2nnc(NC(=O)[C@@H]3CCCC[C@H]3C(O)c3ccccc3)s2)s1` (stereo partly drawn) [Compound 304] are within 0.2 log units of each other in pIC50: 6.10 for the first, 5.92 for the second.

First: O=C(Cc1ccccc1F)Nc1nnc(CCCCc2nnc(NC(=O)Cc3ccccc3F)s2)s1 [Compound 292]
Second: O=C(Cc1c(F)cccc1F)Nc1nnc(CCCCc2nnc(NC(=O)Cc3c(F)cccc3F)s2)s1 [Compound 293]
The pIC50 of the first is 0.30 log units higher: 6.92 for the first, 6.62 for the second. The first is the more potent here.

Compared with `CN(C)CC(=O)Nc1nnc(CCCCc2nnc(NC(=O)Cc3ccccc3)s2)s1` [Compound 297], `C[C@@H](O)C(=O)Nc1nnc(CCCCc2nnc(NC(=O)Cc3ccccc3)s2)s1` [Compound 322] is 0.36 log units higher in pIC50: 5.19 for the first, 5.55 for the second.

`O=C(Cc1c(F)cccc1F)Nc1nnc(CCSCCc2nnc(NC(=O)Cc3c(F)cccc3F)s2)s1` [Compound 298] and `O=C(Cc1ccccn1)Nc1nnc(CCSCCc2nnc(NC(=O)Cc3ccccn3)s2)s1` [Compound 308] are within 0.2 log units of each other in pIC50: 6.14 for the first, 6.22 for the second.

Compared with `CCOc1ccccc1CC(=O)Nc1nnc(CCSCCc2nnc(NC(=O)Cc3ccccc3OCC)s2)s1` [Compound 299], `O=C(Cc1cccc2[nH]ccc12)Nc1nnc(CCCCc2nnc(NC(=O)Cc3cccc4[nH]ccc34)s2)s1` [Compound 323] is 0.77 log units higher in pIC50: 6.48 for the first, 7.25 for the second.

`O=C(OCC(C(=O)Nc1nnc(CCCCc2nnc(NC(=O)C(COC(=O)C3CCN(C(=O)OCc4ccccc4)CC3)c3ccccc3)s2)s1)c1ccccc1)C1CCN(C(=O)OCc2ccccc2)CC1` (stereo not drawn) [Compound 301] and `O=C(Cc1cccc(-c2cccnc2)c1)Nc1nnc(CCCCc2nnc(NC(=O)Cc3cccc(-c4cccnc4)c3)s2)s1` [Compound 312] cannot be ordered by pIC50: under 4.70 for the first, under 4.70 for the second.

Compared with `O=C(Nc1nnc(CCCCc2nnc(NC(=O)C(F)(F)c3ccccc3)s2)s1)C(F)(F)c1ccccc1` [Compound 303], `O=C(Cc1cccnc1)Nc1nnc(CCCCc2nnc(NC(=O)Cc3cccnc3)s2)s1` [Compound 311] is higher in pIC50: under 4.70 for the first, 6.70 for the second. The second is the more potent here.

`COc1cc(C(O)C(=O)Nc2nnc(CCCCc3nnc(NC(=O)C(O)c4ccc(O)c(OC)c4)s3)s2)ccc1O` (stereo not drawn) [Compound 319] gave a pIC50 of 6.19.
